Measurements taken from patent publication US20260193264A1, “BENZOYPARAZINE PYRAZINES AND THEIR USES” (FOGHORN THERAPEUTICS INC., priority 2022, published 2026).

Key:
[1] = target: T1, HiBit-BRG1 fusion protein in stable HeLa cell line expressing HiBit-BRG1 and LgBit (Homo sapiens, UniProt P51532); test: HiBiT-BRG1 cell-based degradation assay (Nano-Glo HiBiT, 24 h); conditions: HeLa HiBit-BRG1/LgBit cells; for DC50: read-out: BRMG1 HiBit Degradation IC50; for Dmax: top dose 30 μM, read-out: BRG1 HiBit Degradation Maximum (%)
T1 construct: expressed in transfected cells
T1 sequence (P51532 whole entry, the tested form may be a part): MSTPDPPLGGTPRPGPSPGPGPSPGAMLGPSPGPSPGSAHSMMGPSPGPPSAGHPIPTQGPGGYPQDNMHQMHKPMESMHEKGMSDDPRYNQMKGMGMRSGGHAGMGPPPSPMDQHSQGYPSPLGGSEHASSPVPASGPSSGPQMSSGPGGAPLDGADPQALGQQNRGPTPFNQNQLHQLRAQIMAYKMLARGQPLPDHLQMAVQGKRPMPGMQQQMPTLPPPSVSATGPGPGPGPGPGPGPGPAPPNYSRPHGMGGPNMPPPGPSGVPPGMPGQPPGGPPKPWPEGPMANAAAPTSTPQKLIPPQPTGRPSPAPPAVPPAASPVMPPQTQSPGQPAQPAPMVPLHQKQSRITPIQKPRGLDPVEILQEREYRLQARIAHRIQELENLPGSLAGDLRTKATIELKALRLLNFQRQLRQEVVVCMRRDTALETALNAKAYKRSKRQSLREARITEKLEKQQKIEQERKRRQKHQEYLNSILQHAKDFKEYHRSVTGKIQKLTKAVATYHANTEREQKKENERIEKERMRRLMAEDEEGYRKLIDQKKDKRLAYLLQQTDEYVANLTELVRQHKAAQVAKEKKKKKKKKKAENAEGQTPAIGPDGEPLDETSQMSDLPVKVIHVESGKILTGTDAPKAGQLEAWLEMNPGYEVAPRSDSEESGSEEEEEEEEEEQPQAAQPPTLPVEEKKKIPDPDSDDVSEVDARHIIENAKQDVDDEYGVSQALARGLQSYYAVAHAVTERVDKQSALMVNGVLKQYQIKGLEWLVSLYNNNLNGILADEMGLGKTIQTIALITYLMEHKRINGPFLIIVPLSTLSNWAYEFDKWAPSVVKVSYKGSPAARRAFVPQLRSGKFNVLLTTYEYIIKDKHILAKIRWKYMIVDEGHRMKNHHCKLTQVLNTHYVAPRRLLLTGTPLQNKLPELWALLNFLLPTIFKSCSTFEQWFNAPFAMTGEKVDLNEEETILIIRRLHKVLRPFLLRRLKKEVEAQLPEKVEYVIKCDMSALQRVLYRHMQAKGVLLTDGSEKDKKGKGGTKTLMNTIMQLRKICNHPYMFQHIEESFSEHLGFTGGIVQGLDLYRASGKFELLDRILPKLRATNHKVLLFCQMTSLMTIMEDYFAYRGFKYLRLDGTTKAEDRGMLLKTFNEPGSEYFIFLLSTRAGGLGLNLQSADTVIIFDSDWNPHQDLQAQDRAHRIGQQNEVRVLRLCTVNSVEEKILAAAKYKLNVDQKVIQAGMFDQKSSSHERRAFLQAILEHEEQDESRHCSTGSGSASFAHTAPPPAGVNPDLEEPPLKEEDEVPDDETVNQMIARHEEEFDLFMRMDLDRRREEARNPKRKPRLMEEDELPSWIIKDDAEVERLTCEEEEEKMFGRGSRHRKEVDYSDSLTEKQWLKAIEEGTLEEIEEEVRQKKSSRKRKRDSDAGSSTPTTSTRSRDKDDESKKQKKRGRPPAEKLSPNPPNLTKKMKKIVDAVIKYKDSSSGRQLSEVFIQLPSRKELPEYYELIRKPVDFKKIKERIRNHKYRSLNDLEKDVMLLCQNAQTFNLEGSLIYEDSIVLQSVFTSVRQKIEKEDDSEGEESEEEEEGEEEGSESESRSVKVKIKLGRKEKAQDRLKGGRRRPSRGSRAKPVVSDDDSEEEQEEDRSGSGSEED
Procedure, shortened: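 Degradation calculated from NanoBiT luminescence relative to DMSO-treated cells (high) and cells given 2 μM known BRM/BRG1 degrader (low). HeLa cells stably expressing HiBiT-BRG1 plus LgBiT were exposed to compound for 24 h before lytic HiBiT detection.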

[2] = target: T2, HiBiT-BRM fusion protein in stable HeLa cell line (Homo sapiens, UniProt P51531); test: HiBiT-BRM cell-based degradation assay (Nano-Glo HiBiT Lytic Detection, 24 h); parameters: DC50: scale not given here; conditions: HeLa HiBiT-BRM cells; for DC50: read-out: BRM HiBit Degradation IC50; for BRM HiBit Degradation Maximum (%): top dose 30 μM
T2 construct: expressed in transfected cells
T2 sequence (P51531 whole entry, the tested form may be a part): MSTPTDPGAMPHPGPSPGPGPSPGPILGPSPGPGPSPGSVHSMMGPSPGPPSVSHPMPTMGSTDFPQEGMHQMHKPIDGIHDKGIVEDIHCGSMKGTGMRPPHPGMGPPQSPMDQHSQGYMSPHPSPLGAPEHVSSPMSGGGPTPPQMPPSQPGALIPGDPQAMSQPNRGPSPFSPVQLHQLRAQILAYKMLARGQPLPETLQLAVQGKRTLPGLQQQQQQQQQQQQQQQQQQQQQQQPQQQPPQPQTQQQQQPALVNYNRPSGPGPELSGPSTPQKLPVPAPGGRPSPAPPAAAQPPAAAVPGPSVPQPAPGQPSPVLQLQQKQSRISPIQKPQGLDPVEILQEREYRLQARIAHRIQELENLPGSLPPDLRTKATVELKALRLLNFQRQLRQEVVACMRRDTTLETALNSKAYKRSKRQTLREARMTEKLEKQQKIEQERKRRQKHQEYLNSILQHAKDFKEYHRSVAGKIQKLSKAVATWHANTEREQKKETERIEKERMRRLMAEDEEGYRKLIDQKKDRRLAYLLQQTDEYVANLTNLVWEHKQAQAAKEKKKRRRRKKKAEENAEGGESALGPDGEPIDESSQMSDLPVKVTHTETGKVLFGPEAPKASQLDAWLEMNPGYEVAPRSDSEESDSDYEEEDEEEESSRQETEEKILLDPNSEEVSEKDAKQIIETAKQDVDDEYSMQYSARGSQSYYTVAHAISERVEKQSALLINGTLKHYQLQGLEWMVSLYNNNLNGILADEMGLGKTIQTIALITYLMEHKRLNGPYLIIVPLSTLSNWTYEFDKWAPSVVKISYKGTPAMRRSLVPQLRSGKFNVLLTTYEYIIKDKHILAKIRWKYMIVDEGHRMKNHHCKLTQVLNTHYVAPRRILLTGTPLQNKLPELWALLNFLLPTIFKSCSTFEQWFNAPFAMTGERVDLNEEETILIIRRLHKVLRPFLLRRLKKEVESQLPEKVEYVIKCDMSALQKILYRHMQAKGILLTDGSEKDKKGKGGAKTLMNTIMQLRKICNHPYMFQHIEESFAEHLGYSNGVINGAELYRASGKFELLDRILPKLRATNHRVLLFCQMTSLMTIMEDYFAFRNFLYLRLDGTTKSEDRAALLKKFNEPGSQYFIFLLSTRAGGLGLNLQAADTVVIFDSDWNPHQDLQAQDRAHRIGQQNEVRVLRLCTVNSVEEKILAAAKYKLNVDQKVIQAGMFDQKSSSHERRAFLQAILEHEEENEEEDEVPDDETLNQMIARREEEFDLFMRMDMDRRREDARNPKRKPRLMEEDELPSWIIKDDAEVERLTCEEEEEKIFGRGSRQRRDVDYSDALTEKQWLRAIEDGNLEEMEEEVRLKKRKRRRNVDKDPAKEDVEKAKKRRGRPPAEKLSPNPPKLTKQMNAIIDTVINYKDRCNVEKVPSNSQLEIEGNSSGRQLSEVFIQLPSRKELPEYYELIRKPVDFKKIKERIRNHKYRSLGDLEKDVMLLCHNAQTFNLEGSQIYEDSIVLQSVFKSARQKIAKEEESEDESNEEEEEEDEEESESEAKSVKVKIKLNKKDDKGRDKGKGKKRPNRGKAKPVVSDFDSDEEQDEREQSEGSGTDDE
Procedure, shortened: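 Percent degradation was scaled between DMSO-treated cells and cells given 2 μM of a known BRM/BRG1 degrader. Readout was NanoBiT luminescence after lytic detection. HeLa cells stably expressing HiBiT-BRM were dosed for 24 h, 10 points, 3-fold steps from 30 μM final, in duplicate.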

SMILES	DC50 [1]	Dmax [1]	DC50 [2]	BRM HiBit Degradation Maximum (%) [2]
Cc1ncsc1-c1ccc([C@H](C)NC(=O)[C@@H]2C[C@@H](O)CN2C(=O)[C@H](C(C)C)n2cc(C3CC4(CC(c5ccc6cc(-c7ccccc7O)nnc6c5)C4)C3)nn2)cc1 (stereo partly drawn) [Compound 208, (2S,4R)-4-hydroxy-1-[(2S)-2-(4-{6-[3-(2-hydroxyphenyl)cinnolin-7-yl]spiro[3.3]heptan-2-yl}-1,2,3-triazol-1-yl)-3-methylbutanoyl]-N-[(1S)-1-[4-(4-methyl-1,3-thiazol-5-yl)phenyl]ethyl]pyrrolidine-2-carboxamide]	> 10 nM	> 75%	< 10 nM	A (“A” indicates maximum degradation ≥75%)
CNC(=O)[C@@H]1C[C@@H](O)CN1C(=O)[C@@H](c1cc(N2CC3(C2)CN(c2cc4nnc(-c5ccccc5O)cc4cc2OC)C3)no1)C(C)C [Compound 209, (2S,4R)-4-hydroxy-1-((R)-2-(3-(6-(3-(2-hydroxyphenyl)-6-methoxycinnolin-7-yl)-2,6-diazaspiro[3.3]heptan-2-yl)isoxazol-5-yl)-3-methylbutanoyl)-N-methylpyrrolidine-2-carboxamide]		< 50%	< 10 nM	A (“A” indicates maximum degradation ≥75%)
Cc1ncsc1-c1ccc([C@H](C)NC(=O)[C@@H]2C[C@@H](O)CN2C(=O)[C@H](C2CCC2)n2cc(N3CC4(CN(c5ccc6cc(-c7ccccc7O)nnc6c5)C4)C3)nn2)cc1 [Compound 211, (2S,4R)-1-((S)-2-cyclobutyl-2-(4-(6-(3-(2-hydroxyphenyl)cinnolin-7-yl)-2,6-diazaspiro[3.3]heptan-2-yl)-1H-1,2,3-triazol-1-yl)acetyl)-4-hydroxy-N-((S)-1-(4-(4-methylthiazol-5-yl)phenyl)ethyl)pyrrolidine-2-carboxamide]		< 50%	< 10 nM	A (“A” indicates maximum degradation ≥75%)
Cc1ncsc1-c1ccc([C@H](C)NC(=O)[C@@H]2C[C@@H](O)CN2C(=O)[C@H](C(C)C)n2cc(N3CC4(CC(c5ccc6cc(-c7ccccc7O)nnc6c5)C4)C3)nn2)cc1 [Compound 212, (2S,4R)-4-hydroxy-1-((S)-2-(4-(6-(3-(2-hydroxyphenyl)cinnolin-7-yl)-2-azaspiro[3.3]heptan-2-yl)-1H-1,2,3-triazol-1-yl)-3-methylbutanoyl)-N-((S)-1-(4-(4-methylthiazol-5-yl)phenyl)ethyl)pyrrolidine-2-carboxamide]	> 10 nM	> 75%	< 10 nM	A (“A” indicates maximum degradation ≥75%)
Cc1ncsc1-c1ccc([C@H](C)NC(=O)[C@@H]2C[C@@H](O)CN2C(=O)C(C(C)C)n2cc(N3C[C@H]4CN(c5ccc6cc(-c7ccccc7O)nnc6c5)C[C@H]4C3)nn2)cc1 (stereo partly drawn) [Compound 213, (2S,4R)-4-hydroxy-1-(2-(4-((3aR,6aS)-5-(3-(2-hydroxyphenyl)cinnolin-7-yl)hexahydropyrrolo[3,4-c]pyrrol-2(1H)-yl)-1H-1,2,3-triazol-1-yl)-3-methylbutanoyl)-N-((S)-1-(4-(4-methylthiazol-5-yl)phenyl)ethyl)pyrrolidine-2-carboxamide]		< 50%	< 10 nM	A (“A” indicates maximum degradation ≥75%)
Cc1ncsc1-c1ccc([C@H](C)NC(=O)[C@@H]2C[C@@H](O)CN2C(=O)[C@H](C(C)C)n2cc(N3CCN4CCN(c5ccc6nnc(-c7ccccc7O)cc6c5)CC4C3)nn2)cc1 (stereo partly shown) [Compound 214]		> 50%	< 10 nM	A (“A” indicates maximum degradation ≥75%)
CC(C)[C@@H](C(=O)N1C[C@H](O)C[C@H]1C(=O)N[C@@H](C)c1ccc(F)cc1)c1cc(N2CC3(C2)CN(c2cc4nnc(-c5ccccc5O)cc4cc2C#N)C3)no1 [Compound 217, (2S,4R)-1-((R)-2-(3-(6-(6-cyano-3-(2-hydroxyphenyl)cinnolin-7-yl)-2,6-diazaspiro[3.3]heptan-2-yl)isoxazol-5-yl)-3-methylbutanoyl)-N-((S)-1-(4-fluorophenyl)ethyl)-4-hydroxypyrrolidine-2-carboxamide]		< 50%	< 10 nM	A (“A” indicates maximum degradation ≥75%)
COc1cc2cc(-c3ccccc3O)nnc2cc1CN1CC[C@@H](N2CCN(c3cc([C@H](C(=O)N4C[C@H](O)C[C@H]4C(=O)N[C@@H](C)c4ccc(-c5scnc5C)cc4)C(C)C)on3)CC2)C(F)(F)C1 [Compound 218, (2S,4R)-1-[(2R)-2-(3-{4-[(4R)-3,3-difluoro-1-{[3-(2-hydroxyphenyl)-6-methoxycinnolin-7-yl]methyl}piperidin-4-yl]piperazin-1-yl}-1,2-oxazol-5-yl)-3-methylbutanoyl]-4-hydroxy-N-[(1S)-1-[4-(4-methyl-1,3-thiazol-5-yl)phenyl]ethyl]pyrrolidine-2-carboxamide]	> 10 nM	> 75%	< 10 nM	A (“A” indicates maximum degradation ≥75%)
COc1cc2cc(-c3ccccc3O)nnc2cc1CN1CC[C@H](N2CCN(c3cc([C@H](C(=O)N4C[C@H](O)C[C@H]4C(=O)N[C@@H](C)c4ccc(-c5scnc5C)cc4)C(C)C)on3)CC2)C(F)(F)C1 [Compound 219, (2S,4R)-1-((R)-2-(3-(4-((S)-3,3-difluoro-1-((3-(2-hydroxyphenyl)-6-methoxycinnolin-7-yl)methyl)piperidin-4-yl)piperazin-1-yl)isoxazol-5-yl)-3-methylbutanoyl)-4-hydroxy-N-((S)-1-(4-(4-methylthiazol-5-yl)phenyl)ethyl)pyrrolidine-2-carboxamide]	> 10 nM	> 75%	< 10 nM	A (“A” indicates maximum degradation ≥75%)
Cc1ncsc1-c1ccc([C@H](C)NC(=O)[C@@H]2C[C@@H](O)CN2C(=O)[C@@H](c2cc(N3CC4(CC(c5cc6nnc(-c7ccccc7O)cc6cc5Cl)C4)C3)no2)C(C)C)cc1 [Compound 220, (2S,4R)-1-((R)-2-(3-(6-(6-chloro-3-(2-hydroxyphenyl)cinnolin-7-yl)-2-azaspiro[3.3]heptan-2-yl)isoxazol-5-yl)-3-methylbutanoyl)-4-hydroxy-N-((S)-1-(4-(4-methylthiazol-5-yl)phenyl)ethyl)pyrrolidine-2-carboxamide]	> 10 nM	> 75%	< 10 nM	A (“A” indicates maximum degradation ≥75%)
Cc1ncsc1-c1ccc([C@H](C)NC(=O)[C@@H]2C[C@@H](O)CN2C(=O)[C@@H](c2cc(N3CC4(CC(c5cc6nnc(-c7ccccc7O)cc6cc5C#N)C4)C3)no2)C(C)C)cc1 [Compound 222, (2S,4R)-1-((R)-2-(3-(6-(6-cyano-3-(2-hydroxyphenyl)cinnolin-7-yl)-2-azaspiro[3.3]heptan-2-yl)isoxazol-5-yl)-3-methylbutanoyl)-4-hydroxy-N-((S)-1-(4-(4-methylthiazol-5-yl)phenyl)ethyl)pyrrolidine-2-carboxamide]		< 50%	< 10 nM	A (“A” indicates maximum degradation ≥75%)
C#Cc1ccc(CNC(=O)[C@@H]2C[C@@H](O)CN2C(=O)[C@H](C(C)C)n2cc(N3CC4(CN(c5ccc6cc(-c7ccccc7O)nnc6c5)C4)C3)nn2)c(Cl)c1 [Compound 223, (2S,4R)—N-[(2-chloro-4-ethynylphenyl)methyl]-4-hydroxy-1-[(2S)-2-(4-{6-[3-(2-hydroxyphenyl)cinnolin-7-yl]-2,6-diazaspiro[3.3]heptan-2-yl}-1,2,3-triazol-1-yl)-3-methylbutanoyl]pyrrolidine-2-carboxamide]		> 50%	< 10 nM	A (“A” indicates maximum degradation ≥75%)
Cc1ncsc1-c1ccc([C@H](C)NC(=O)[C@H]2C[C@H](O)CN2C(=O)C(c2cc(N3C[C@@H]4C[C@H]3CN4c3ccc4cc(-c5ccccc5O)nnc4c3)no2)C(C)C)cc1 (stereo partly drawn) [Compound 224, (2R,4S)-4-hydroxy-1-(2-(3-((1S,4S)-5-(3-(2-hydroxyphenyl)cinnolin-7-yl)-2,5-diazabicyclo[2.2.1]heptan-2-yl)isoxazol-5-yl)-3-methylbutanoyl)-N-((S)-1-(4-(4-methylthiazol-5-yl)phenyl)ethyl)pyrrolidine-2-carboxamide]	> 10 nM	> 75%	< 10 nM	A (“A” indicates maximum degradation ≥75%)
Cc1ncsc1-c1ccc([C@H](C)NC(=O)[C@@H]2C[C@@H](O)CN2C(=O)C(c2cc(N3CCC(C4CN(c5ccc6cc(-c7ccccc7O)nnc6c5)C4)CC3)no2)C(C)C)cc1 (stereo partly drawn) [Compound 225, (2S,4R)-4-hydroxy-1-(2-(3-(4-(1-(3-(2-hydroxyphenyl)cinnolin-7-yl)azetidin-3-yl)piperidin-1-yl)isoxazol-5-yl)-3-methylbutanoyl)-N-((S)-1-(4-(4-methylthiazol-5-yl)phenyl)ethyl)pyrrolidine-2-carboxamide]	> 10 nM	> 75%	< 10 nM	A (“A” indicates maximum degradation ≥75%)
